Converted amounts (≈) assume the structure as drawn. Some results are limits rather than exact numbers.

The subject of assay [1] is Salmonella typhi. In words: Antibacterial activity against Salmonella enterica subsp. enterica serovar Typhi MTCC 733 after 24 hr. Particulars: MTCC 733, 24 h. The class given is functional.
For assay [2], the system named is Proteus vulgaris. The assay can be described thus: Antibacterial activity against Proteus vulgaris MTCC 1771 after 24 hr. It is filed as functional. Particulars: MTCC 1771, 24 h.
The subject of assay [3] is Pseudomonas aeruginosa. In words: Antibacterial activity against Pseudomonas aeruginosa MTCC 741 after 24 hr by agar disk diffusion test. The class given is functional. In general terms: A growth-free zone around the sample is the usual read-out of agar diffusion tests.
Assay [4] deals with Aspergillus niger. In words: Antifungal activity against Aspergillus niger MTCC 282 after 48 hr. It is filed as functional. Particulars: MTCC 282, 48 h.
The test system of assay [5] is Escherichia coli. The assay can be described thus: Antibacterial activity against Escherichia coli MTCC 739 after 24 hr. It is filed as functional. Particulars: MTCC 739, 24 h.
The test system of assay [6] is Candida albicans. In words: Antifungal activity against Candida albicans MTCC 183 after 48 hr. The class given is functional. Particulars: MTCC 183, 48 h.
Assay [7] has as its system Staphylococcus aureus. The assay can be described thus: Antibacterial activity against Staphylococcus aureus MTCC 96 after 24 hr. The class given is functional. Particulars: MTCC 96, 24 h.
Assay [8] relates to Pseudomonas aeruginosa. In words: Antibacterial activity against Pseudomonas aeruginosa MTCC 741. The class given is functional.
Assay [9] has as its system Staphylococcus aureus. The assay can be described thus: Antibacterial activity against Staphylococcus aureus MTCC 96 after 24 hr by agar disk diffusion test. It is filed as functional.
For assay [10], the system named is Aspergillus niger. In words: Antifungal activity against Aspergillus niger MTCC 282 after 24 hr by agar disk diffusion test. It is filed as functional.
Assay [11] has as its system Salmonella typhi. The assay can be described thus: Antibacterial activity against Salmonella enterica subsp. enterica serovar Typhi MTCC 733 after 24 hr by agar disk diffusion test. It is filed as functional.
In assay [12] the test system is Bacillus cereus. In words: Antibacterial activity against Bacillus cereus MTCC 619 after 24 hr by agar disk diffusion test. It is filed as functional.
The subject of assay [13] is Shigella flexneri. The assay can be described thus: Antibacterial activity against Shigella flexneri after 24 hr. The class given is functional.
For assay [14], the system named is Escherichia coli. The assay can be described thus: Antibacterial activity against Escherichia coli MTCC 739 after 24 hr by agar disk diffusion test. The class given is functional.
In assay [15] the test system is Bacillus cereus. In words: Antibacterial activity against Bacillus cereus MTCC 619 after 24 hr. The class given is functional. Particulars: MTCC 619, 24 h.
Assay [16] concerns Klebsiella pneumoniae. The assay can be described thus: Antibacterial activity against Klebsiella pneumoniae MTCC 109 after 24 hr by agar disk diffusion test. It is filed as functional.
Assay [17] has as its system Klebsiella pneumoniae. In words: Antibacterial activity against Klebsiella pneumoniae MTCC 109 after 24 hr. The class given is functional. Particulars: MTCC 109, 24 h.
The test system of assay [18] is Candida albicans. The assay can be described thus: Antifungal activity against Candida albicans MTCC 183 after 24 hr by agar disk diffusion test. The class given is functional.
Assay [19] has as its system Shigella flexneri. The assay can be described thus: Antibacterial activity against Shigella flexneri after 24 hr by agar disk diffusion test. The class given is functional.
For assay [20], the system named is Proteus vulgaris. In words: Antibacterial activity against Proteus vulgaris MTCC 1771 after 24 hr by agar disk diffusion test. The class given is functional.
In assay [21] the test system is Klebsiella pneumoniae. In words: microbe, parasite or virus in culture. Particulars: MTCC 109, 24 h, read-out: IZ.
Description: Antibacterial activity against Klebsiella pneumoniae MTCC 109 at 100 ug/disk after 24 hr by agar disk diffusion test
Assay [22] relates to Shigella flexneri. The assay can be described thus: Antibacterial activity against Shigella flexneri at 100 ug/disc after 24 hr by agar disk diffusion test. Particulars: read-out: IZ. It is filed as functional.
Assay [23] has as its system Escherichia coli. The assay can be described thus: microbe, parasite or virus in culture. Particulars: MTCC 739, 24 h, read-out: IZ.
Description: Antibacterial activity against Escherichia coli MTCC 739 at 100 ug/disk after 24 hr by agar disk diffusion test
The subject of assay [24] is Pseudomonas aeruginosa. In words: microbe, parasite or virus in culture. Particulars: MTCC 741, 24 h, read-out: IZ.
Description: Antibacterial activity against Pseudomonas aeruginosa MTCC 741 at 100 ug/disk after 24 hr by agar disk diffusion test
The test system of assay [25] is Bacillus cereus. In words: Antibacterial activity against Bacillus cereus MTCC 619 at 100 ug/disk after 24 hr by agar disk diffusion test. It is filed as functional. Particulars: MTCC 619, 24 h, read-out: IZ.
The test system of assay [26] is Staphylococcus aureus. In words: Antibacterial activity against Staphylococcus aureus MTCC 96 at 100 ug/disc after 24 hr by agar disk diffusion test. Particulars: MTCC 96, 24 h, read-out: IZ.
The subject of assay [27] is Proteus vulgaris. The assay can be described thus: Antibacterial activity against Proteus vulgaris MTCC 1771 at 100 ug/disk after 24 hr by agar disk diffusion test. It is filed as functional. Particulars: MTCC 1771, 24 h, read-out: IZ.
The test system of assay [28] is Salmonella typhi. In words: Antibacterial activity against Salmonella enterica subsp. enterica serovar Typhi MTCC 733 at 100 ug/disk after 24 hr by agar disk diffusion test. It is filed as functional. Particulars: MTCC 733, 24 h, read-out: IZ.
Assay [29] relates to Candida albicans. In words: Antifungal activity against Candida albicans MTCC 183 at 100 ug/disk after 24 hr by agar disk diffusion test. The class given is functional. Particulars: MTCC 183, 24 h, read-out: IZ.
The test system of assay [30] is Aspergillus niger. The assay can be described thus: Antifungal activity against Aspergillus niger MTCC 282 at 100 ug/disk after 24 hr by agar disk diffusion test. It is filed as functional. Particulars: MTCC 282, 24 h, read-out: IZ.

Consider `CN1CCN(c2nc(Oc3cccc4cccnc34)nc(Sc3nnc(-c4cc5ccccc5oc4=O)o3)n2)CC1`, for which the MIC in assay [1], in assay [2], in assay [4], in assay [5], in [6] and in [7] was 100 µg/mL (≈ 176 µM) throughout. For the same compound, the minimal inhibitory concentration (MIC) in [8], in [13], in assay [15] and in assay [17] was 100 µg/mL (≈ 176 µM) in each case. For the same compound, the “inhibition zone (IZ)” value in assay [3] is 19 mm; in assay [9], 13 mm; in assay [10], less than 10 mm; in assay [11], 16 mm; in assay [12], less than 10 mm; in assay [14], 12 mm. Further, the “inhibition zone (IZ)” value in assay [16] came out at 12 mm; in assay [18], 11 mm; in assay [19], 18 mm; in assay [20], 11 mm.
Consider `CCN1CCN(c2nc(Oc3cccc4cccnc34)nc(Sc3nnc(-c4cc5ccccc5oc4=O)o3)n2)CC1`, for which the MIC in assay [1], in [2], in assay [4], in assay [5], in assay [6] and in assay [7] was 100 µg/mL (≈ 172 µM) in each case. Also, the minimal inhibitory concentration (MIC) in [8], in [13], in assay [15] and in assay [17] was 100 µg/mL (≈ 172 µM) throughout. Moreover, the “inhibition zone (IZ)” value in assay [3] was 18 mm; in assay [9], 15 mm; in assay [10], less than 10 mm; in [11] it was 16 mm; in [12], 13 mm; in assay [14] it was 16 mm. Moreover, the “inhibition zone (IZ)” value in [16] is listed as 14 mm; in assay [18], 13 mm; in assay [19], 20 mm; in assay [20], 12 mm.
Regarding `O=c1oc2ccccc2cc1-c1nnc(Sc2nc(Oc3cccc4cccnc34)nc(N3CCN(c4cccc(Cl)c4)CC3)n2)o1`, the MIC – broadly, the least concentration at which growth counts as inhibited – in [1] worked out at 100 µg/mL (≈ 151 µM); in [2], 100 µg/mL (≈ 151 µM); in assay [4], 100 µg/mL (≈ 151 µM); in assay [5], 25 µg/mL (≈ 37.7 µM); in [6], 50 µg/mL (≈ 75.4 µM); in assay [7], 100 µg/mL (≈ 151 µM). The minimal inhibitory concentration (MIC) in assay [8], in assay [13], in assay [15] and in [17] was 100 µg/mL (≈ 151 µM) in each case. Also, the “inhibition zone (IZ)” value in assay [3] is on record as 14 mm; in [9] it was 17 mm; in assay [10], 20 mm; in [11], 17 mm; in assay [12], 17 mm; in [14], 25 mm. Moreover, the “inhibition zone (IZ)” value is reported as 15 mm in assay [16], 20 mm in assay [18], 19 mm in assay [19] and 19 mm in assay [20].
For `O=C(O)c1cn(C2CC2)c2cc(N3CCNCC3)c(F)cc2c1=O` [CIPROFLOXACIN], the zone of inhibition at 100 µg/disc worked out at 33 mm in assay [21]; 32 mm in assay [22]; 32 mm in [23]; 33 mm in [24]; 31 mm in assay [25]; 30 mm in [26]. Moreover, the zone of inhibition at 100 µg/disc in [27] was 31 mm; in [28], 30 mm. The MIC in assay [1] came to 0.39 µg/mL (≈ 1.18 µM); in assay [2], 0.39 µg/mL (≈ 1.18 µM); in assay [7] it was 1.56 µg/mL (≈ 4.71 µM); in assay [8], 0.78 µg/mL (≈ 2.35 µM); in assay [13], 1.56 µg/mL (≈ 4.71 µM); in assay [15], 0.39 µg/mL (≈ 1.18 µM). This compound yielded an MIC in assay [17] of 0.78 µg/mL (≈ 2.35 µM).
Regarding `CC(=O)N1CCN(c2ccc(OCC3COC(Cn4ccnc4)(c4ccc(Cl)cc4Cl)O3)cc2)CC1` (centres undefined) [KETOCONAZOLE], the zone of inhibition at 100 µg/disc in [29] came to 33 mm; in assay [30], 30 mm. Further, the MIC in assay [4] and in [6] was 1.56 µg/mL (≈ 2.94 µM) each time.

The values are drawn from ChEMBL document CHEMBL3045723, “Synthesis of novel 3-(5-sulfanyl-1,3,4-oxadiazol-2-yl)-2H-chromen-2-one condensed s-triazinyl piperazines and piperidines as antimicrobial agents” (2012).
